Values of other authors, collected in patent US20050239189A1, “Oxidant-scavenging compound for anaerobic treatment” (priority 2004, published 2005).

Test system: CVOC dehalogenation
Conditions: eight case studies reported by Regenesis, Inc. (2000)

## CC(O)C(=O)O (stereo not shown) [Lactic Acid]
  stimulation of CVOC dehalogenation: stimulated CVOC dehalogenation
